Consider 3 molecules from patent US20030159159A1, “Human nerve growth factor exon 1 and exon 3 promoters” (priority 1997, published 2003).

Experiment [1] relates to human nerve growth factor exon 1 promoter KE (pNE1KE) in L929 cells. As to the kind of experiment: Luciferase assay, L929 stable cell lines with pNE1KE (human NGF exon 1 promoter KE). It is filed as cell-based. To be noted: serum deprivation 48-56 hours, 18 hr treatment: serum 10% horse serum, PMA 1 μM, calcitriol 10 nM, mean ± SEM, 6 cell lines in duplicate, read-out: Fold induction over vehicle controls without serum (luciferase), L929 Mouse Exon 1 KE. From the text:
(§1) DNA for the human nerve growth factor exon 1 clones was originally identified by PCR screening a human P1 genomic library (clone 1226-G9, Genome Systems). A ˜14,000 bp fragment containing exon 1 was cloned into a pBS SK+ vector to yield the plasmid identified as pBSEx1. Two overlapping fragments were isolated from the insert in pBSEx1 and subcloned into a pGL3neo vector. The largest construct containing human nerve growth factor exon 1 is 2846 bp and is identified as pNE1KS. The second subclone from pBSEx1, identified as pNE1KE, contains the same 5′ end as pNE1KS and is truncated on the 3′ end in exon 1, resulting in an insert that is 2234 bp. pNE1KS and pNE1KE were transfected into mouse L929 cells and human UC 11 cells to generate the data in Table 1. […]
(§2) Cells were plated at 5,000 cells/well in 96 well dishes in serum containing media described above. […] Cells were treated with 1 μM PMA, 10 nM calcitriol or 10% horse serum and luciferase activity was determined 18 hours later using a Promega kit (catalog #E1500). […] Luciferase activity was detected in a MicroLumat LB 96 P luminometer (Wallac Inc, Gaithersburg, Md.) for 10 seconds following automatic injection of 100 μl 470 μM luciferin.

Experiment [2] has as its system human nerve growth factor exon 1 promoter KS (pNE1KS) in UC11 cells. As to the kind of experiment: Luciferase assay, UC11 stable cell lines with pNE1KS (human NGF exon 1 promoter KS). In kind it is cell-based. To be noted: serum deprivation 48-56 hours, 18 hr treatment: serum 10% horse serum, PMA 1 μM, calcitriol 10 nM, mean ± SEM, 6 cell lines in triplicate, read-out: Fold induction over vehicle controls without serum (luciferase), UC11 Human Exon 1 KS.
Source text: as §1, §2

Experiment [3] deals with human nerve growth factor exon 3 promoter (pGL2Ex3) in L929 cells. As to the kind of experiment: Luciferase assay, L929 stable cell line with pGL2Ex3 (human NGF exon 3 promoter). It is filed as cell-based. To be noted: serum deprivation 48-56 hours, 18 hr treatment: serum 10% horse serum, PMA 1 μM, calcitriol 10 nM, mean ± SEM, 1 cell line n = 11-17, read-out: Fold induction over vehicle controls without serum (luciferase), L929 Mouse Exon 3.
Source text: (§3) DNA for the human nerve growth factor exon 3 clones was originally identified by PCR screening a human P1 genomic library (clone 0095-B8, Genome Systems). A ˜6600 bp fragment containing exon 3 was cloned into a pBS SK+ vector to yield the plasmid identified as pBSEx3. A 4329 bp fragment was isolated from the insert in pBSEx3 and subcloned into a pGL2 enhancer vector (Promega) and a pGL3 basic vector (Promega) to yield clones identified as pGL2Ex3 and pGL3Ex3, respectively. The pGL2Ex3 was transfected into mouse L929 cells and the pGL3Ex3 vector was transfected into human UC11 cells to generate the data in Table 1.
L929 mouse fibroblast cells (ATCC, Rockville, Md.) were grown in Dulbecco's modified Eagle's medium (DMEM) containing 10% horse serum, penicillin (50 μg/ml), streptomycin (50 μg/ml), neomycin (100 μg/ml), and glutamine (1 mM). Cells were maintained at 37° C. in 5% CO2, fed every 3-4 days and passaged once per week. […]
as §2

The subject of experiment [4] is human nerve growth factor exon 1 promoter KE (pNE1KE) in UC11 cells. Put plainly: Luciferase assay, UC11 stable cell lines with pNE1KE (human NGF exon 1 promoter KE). In kind it is cell-based. Particulars: serum deprivation 48-56 hours, 18 hr treatment: serum 10% horse serum, PMA 1 μM, calcitriol 10 nM, mean ± SEM, 6 cell lines in triplicate, read-out: Fold induction over vehicle controls without serum (luciferase), UC11 Human Exon 1 KE.
Source text: as §1, §2

The test system of experiment [5] is human nerve growth factor exon 1 promoter KS (pNE1KS) in L929 cells. As to the kind of experiment: Luciferase assay, L929 stable cell lines with pNE1KS (human NGF exon 1 promoter KS). It is filed as cell-based. Particulars: serum deprivation 48-56 hours, 18 hr treatment: serum 10% horse serum, PMA 1 μM, calcitriol 10 nM, mean ± SEM, 6 cell lines in duplicate, read-out: Fold induction over vehicle controls without serum (luciferase), L929 Mouse Exon 1 KS.
Source text: as §1, §2

Experiment [6] has as its system human nerve growth factor exon 3 promoter (pGL3Ex3) in UC11 cells. Put plainly: Luciferase assay, UC11 stable cell line with pGL3Ex3 (human NGF exon 3 promoter). In kind it is cell-based. Particulars: serum deprivation 48-56 hours, 18 hr treatment: serum 10% horse serum, PMA 1 μM, calcitriol 10 nM, mean ± SEM, 1 cell line n = 11-17, read-out: Fold induction over vehicle controls without serum (luciferase), UC11 Human Exon 3.
Source text: as §3
UC11 human astrocytoma cells (Liwnicz, et. al. 1986) were grown in RPMI 1640 containing 10% fetal bovine serum, 20 mM HEPES, penicillin (50 μg/ml), streptomycin (50 μg/ml), neomycin (100 μg/ml), and glutamine (1 mM). Cells were maintained at 37° C. in 5% CO2, fed every 3-4 days and passaged once per week. […]
as §2

Experiment [7] relates to wild type cells. Put plainly: G418 concentration curve on wild type cells. Particulars: in 13 days. In kind it is cell-based. On the procedure:
Since geneticin (G418) resistance would be used as a selection tool, a G418 concentration curve was done and it was determined that 600 μg/ml was the minimum concentration G418 necessary to kill all the wild type cells in 13 days.

The test system of experiment [8] is ROS 17/2.8 osteoblastic cells. To be noted: cited from earlier work.
The subject of experiment [9] is primary glial cells. Particulars: cited from earlier work.
The test system of experiment [10] is mouse L929 fibroblasts. Particulars: cited from earlier work.

In the case of `C=C1/C(=C\C=C2/CCC[C@]3(C)[C@@H]([C@H](C)CCCC(C)(C)O)CC[C@@H]23)C[C@@H](O)C[C@@H]1O` [CALCITRIOL, calcitriol], the fold induction at 0.01 µM in experiment [1] turned out to be 0.71; in [2] it was 0.86 ± 0.03; in experiment [3] it was 0.73; in [4], 1.01 ± 0.23; in experiment [5], 0.67; in experiment [6], 0.98.

Turning to `CN[C@@H]1[C@@H](O)[C@@H](O[C@@H]2[C@@H](O)[C@H](O[C@H]3O[C@H]([C@@H](C)O)[C@@H](O)[C@H](O)[C@H]3N)[C@@H](N)C[C@H]2N)OC[C@]1(C)O` [G418, geneticin], the “minimum concentration G418 necessary to kill all the wild type cells” value in experiment [7] was 600 µg/mL.

As for `CCCCCCCCCCCCCC(=O)O[C@@H]1[C@@H](C)[C@@]2(O)[C@@H](C=C(CO)C[C@]3(O)C(=O)C(C)=C[C@@H]23)[C@@H]2C(C)(C)[C@]12OC(C)=O` [PMA, phorbol 12-myristate 13-acetate], the “effect on NGF expression” value in [8] is “suppresses expression”. The “effect on synthesis of NGF” value in [9] and in experiment [10] was “enhances the synthesis of NGF” each time.
